Reference: patent publication US12643887B2, “Heterocyclic derivatives with cardiomyocyte proliferation activity for treatment of heart diseases” (Tongji University, priority 2019, dated 2026)

Columns and labels:
[1] = system: Neonatal Rat Ventricular Myocytes (NRVMs); assay: Myocyte proliferation assay (EdU assay) in neonatal rat ventricular myocytes; assay type: cell-based; conditions: growth relative to blank myocyte growth without compound added; for Avg 1 uM (average myocyte proliferation): compound 1 uM; for Avg 3 uM (average myocyte proliferation): compound 3 uM; for Avg 10 uM (average myocyte proliferation): compound 10 uM
Procedure: 1. Isolation of and Culture Neonatal Rat Ventricular Myocytes (NRVMs)
Ventricles from neonatal rats were separated from the atria, cut into small pieces (about 2×2 mm^2) and then dissociated in Ca2+-free HBSS containing 0.125 mg ml-1 trypsin (Gibco), 10 μg ml-1 DNase II (Sigma) and 0.1 mg ml-1 collagenase type IV (Sigma). The digestion was carried out under constant stirring at 37° C. for 5 min. The supernatant was collected with FBS (Gibco) after each digestion period. After digestion, the collected supernatant was centrifuged at 1000 g for 10 min at room temperature, and then cell pellets were resuspended in DMEM (Gibco) supplemented with 10% FBS and with 100 uM 5-bromo-2′-deoxyuridine (Sigma). The resuspended cells were passed through a cell strainer ([…], BD Falcon) and seeded onto 100-mm plastic dishes for 2 h at 37° C. in a 5% CO2 to remove fibroblasts, the supernatant was then collected and plated onto 1% gelatin (Sigma)-coated dishes. 24 h after the seeding, the medium was changed to DMEM (Gibco) containing 2% FBS (Gibco), 1% insulin-transferrin-selenium (ITS; Gibco), 1% Penicillin-Streptomycin (Gibco). After 24 hours of low serum culture, remove the medium with DMEM (Gibco) containing 6% FBS (Gibco), 1% insulin-transferrin-selenium (ITS; Gibco), 1% Penicillin-Streptomycin (Gibco), different concentrations of compounds (the compounds were pre-diluted in the medium and the drug concentration was 10 uM, 3 uM, 1 uM, fully mixed). After 36 h add Edu substrate (Invitrogen) according to the manufacturer's guidelines, and then after 12 h cell can be used.
• 2.1. Immobilization: Remove the medium and fix the cells with […] in 200 ul (whichever is covered) for 15 min and wash the cells twice with 500 ul of PBS for 5 min each time. • 2.2. Broken membrane: Add 200 ul of 0.3% Triton-X 100 (diluted in PBS) to each well, incubate for 10-15 min at room temperature (the time should not be too long), and wash the cells twice with 500 ul of PBS for 5 min each time. • 2.3. Blocking: Add 200 ul of 10% normal goat serum (diluted with 0.1% PBST) to each well, incubate for 1 h at room temperature, and wash twice with 500 ul of 0.1% PBST for 5 min each time. • 2.4. Primary antibody: dilute the primary antibody (abcam, ab8295) to blocking solution at a ratio of 1:200, add 100 ul per well, incubate for 1 h at room temperature (may be slightly longer than 2-3 h), wash the cells twice with 500 ul 0.1% PBST for 5 min each time. • 2.5. Secondary antibody: Dilute the fluorescently labeled secondary antibody (abcam, ab150117) into blocking solution at a ratio of 1:200, add 100 ul per well, incubate for 1 h at room temperature (the time should not be too long), wash the cells twice with 0.1% PBST for 5 min each time, pay attention to the whole process. Protected from light. • 2.6. Edu staining (Invitrogen C10338) • 2.6.1 Prepare Click-iT® reaction cocktail according to Table 3. It was important to add the ingredients in the order listed in the table; otherwise, the reaction would not proceed optimally. Use the Click-iT® reaction cocktail within 15 minutes of preparation.
• 2.6.2 Add 0.1 mL of Click-iT® reaction cocktail to each well containing a coverslip. Rock the plate briefly to ensure that the reaction cocktail is distributed evenly over the coverslip. • 2.6.3 Incubate the plate for 30 minutes at room temperature, protected from light. • 2.6.4 Remove the reaction cocktail, then wash the cells twice with 0.1% PBST for 5 min each time. • 2.7. DAPI staining: DAPI stain was diluted to PBS at a ratio of 1:1000, 100 ul per well, incubated for 30 min at room temperature, and the cells were washed twice with PBS for 5 min each. 3. Data Analysis
We used Molecular Devices' Image Xpress Micro Confocal for high-throughput photo and data analysis.

[2] = target: T1, human HIPK1 (Homo sapiens, UniProt Q86Z02); assay: HIPK1 enzyme assay (ADP-Glo); assay type: biochemical; conditions: ADP-Glo, ATP 5 μM; read-out: HIPK1 IC50
T1 construct: Recombinant human HIPK1 (156-555); GST (N); purchased SignalChem H03-11G; host or cells: Sf9 insect cells
Procedure: The ability of compounds to inhibit human HIPK1 kinase activities was determined using a commercially available ADP-Glo™ Kinase Assay kit (Promega, Cat #V9102) according to the manufacturer's protocol.
Recombinant human HIPK1 (156-555) (expressed in Sf9 insect cells with an N-terminal GST tag) was purchased from SignalChem (Cat #H03-11G). Recombinant full length human MBP (expressed in E. Coli cells with an N-terminal GST tag) was purchased from SignalChem (Cat #M42-54G). This assay, run in a 384-well plate format, is a generic method for measuring kinase activities using an ADP-Glo Kinase Assay Kit. The basic assay procedure involves two steps: (1) Enzymatic step: inhibitors are incubated with the kinase and then ATP (included in the ADP-Glo Kinase Assay Kit) and the MBP protein are added to start the enzymatic reaction; (2) Detection step: after the kinase reaction, first ADP-Glo™ Reagent is added to terminate the kinase reaction and deplete the remaining ATP. Second, the Kinase Detection Reagent is added to simultaneously convert ADP to ATP and allow the newly synthesized ATP to be measured using a luciferase/luciferin reaction. The light generated is measured using a luminometer.
Briefly, HIPK1 (4 nM) in the enzymatic buffer solutions (40 mM Tris, pH 7.5, 20 mM MgCl2, 0.1 mg/ml BSA, 50 μM DTT) were mixed with various concentrations of inhibitors (dissolved in 100% DMSO). These solutions were incubated for 30 minutes at 25° C., and subsequently a mixture of substrate peptide and ATP was added with the final peptide and ATP concentrations at 0.05 mg/ml and 5 μM, respectively. The final reaction mixture of enzyme-substrate-ATP-compound was incubated for 90 minutes at 25° C.
Afterwards ADP-Glo™ Reagent was added and the mixture was incubated at 25° C. for 60 minutes. Then Kinase Detection Reagent was added, and the final mixture was incubated at 25° C. for 60 minutes. The luminescence signal of the final solution was measured on an Envision instrument (PerkinElmer). The percent (%) inhibition at each concentration of a compound is calculated relative to the luminescence signal in the Max and Min control wells contained within each assay plate. […] The concentrations and percent inhibition values for a test compound are plotted and the concentration of the compound required to achieve 50% inhibition (IC50) is determined with a four-parameter logistic dose response equation.

T1 sequence (Q86Z02 156-555): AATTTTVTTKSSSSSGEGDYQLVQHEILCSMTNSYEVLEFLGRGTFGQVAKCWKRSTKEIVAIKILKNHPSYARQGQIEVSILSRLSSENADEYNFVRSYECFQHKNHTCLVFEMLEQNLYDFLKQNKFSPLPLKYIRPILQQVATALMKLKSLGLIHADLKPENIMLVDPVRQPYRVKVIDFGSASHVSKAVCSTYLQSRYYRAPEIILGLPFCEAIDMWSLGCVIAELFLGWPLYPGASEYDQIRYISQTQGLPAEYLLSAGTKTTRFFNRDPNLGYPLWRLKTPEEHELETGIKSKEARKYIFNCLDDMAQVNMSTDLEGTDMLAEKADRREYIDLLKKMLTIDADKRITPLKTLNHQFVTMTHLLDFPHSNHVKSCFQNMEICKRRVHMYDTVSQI

O=C1NC(Nc2ccccc2)=N/C1=C\c1cncs1 [Example 15, (Z)-2-(phenylamino)-5-(thiazol-5-ylmethylene)-3,5-dihydro-4H-imidazol-4-one]
Avg 1 uM (average myocyte proliferation) [1]: * (<10% growth relative to blank myocyte growth without compound added.)
Avg 3 uM (average myocyte proliferation) [1]: ** (10%-50%)
IC50 [2]: > 10 µM

O=C1NC(Nc2ccccc2)=N/C1=C\c1ccc2nccnc2c1 [Example 16, (Z)-2-(phenylamino)-5-(quinoxalin-6-ylmethylene)-3,5-dihydro-4H-imidazol-4-one]
Avg 1 uM (average myocyte proliferation) [1]: * (<10% growth relative to blank myocyte growth without compound added.)
Avg 3 uM (average myocyte proliferation) [1]: * (<10% growth relative to blank myocyte growth without compound added.)
IC50 [2]: 1 to 10 µM

CN(C1=N/C(=C\c2ccc3c(c2)OC(F)(F)O3)C(=O)N1)c1ccccc1 [Example 17, (Z)-5-((2,2-difluorobenzo[d][1,3]dioxol-5-yl)methylene)-2-(methyl(phenyl)amino)-3,5-dihydro-4H-imidazol-4-one]
Avg 1 uM (average myocyte proliferation) [1]: * (<10% growth relative to blank myocyte growth without compound added.)
Avg 3 uM (average myocyte proliferation) [1]: * (<10% growth relative to blank myocyte growth without compound added.)
Avg 10 uM (average myocyte proliferation) [1]: * (<10% growth relative to blank myocyte growth without compound added.)
IC50 [2]: > 10 µM

CN(C1=N/C(=C\c2ccc3c(c2)OCO3)C(=O)N1)c1cccnc1 [Example 18, (Z)-5-(benzo[d][1,3]dioxol-5-ylmethylene)-2-(methyl(pyridin-3-yl)amino)-3,5-dihydro-4H-imidazol-4-one]
Avg 1 uM (average myocyte proliferation) [1]: * (<10% growth relative to blank myocyte growth without compound added.)
Avg 3 uM (average myocyte proliferation) [1]: * (<10% growth relative to blank myocyte growth without compound added.)
Avg 10 uM (average myocyte proliferation) [1]: ** (10%-50%)
IC50 [2]: > 10 µM

CN(CC1CC1)C1=N/C(=C\c2ccc3c(c2)OCCO3)C(=O)N1 [Example 19, (Z)-2-((cyclopropylmethyl)(methyl)amino)-5-((2,3-dihydrobenzo[b][1,4]dioxin-6-yl)methylene)-3,5-di hydro-4H-imidazol-4-one]
Avg 1 uM (average myocyte proliferation) [1]: * (<10% growth relative to blank myocyte growth without compound added.)
Avg 3 uM (average myocyte proliferation) [1]: * (<10% growth relative to blank myocyte growth without compound added.)
Avg 10 uM (average myocyte proliferation) [1]: * (<10% growth relative to blank myocyte growth without compound added.)
IC50 [2]: > 10 µM

CN(CCN1CCOCC1)C1=N/C(=C\c2ccc3c(c2)OCO3)C(=O)N1 [Example 20, (Z)-5-(benzo[d][1,3]dioxol-5-ylmethylene)-2-(methyl(2-morpholinoethyl)amino)-3,5-dihydro-4H-imidazol-4-one]
Avg 1 uM (average myocyte proliferation) [1]: * (<10% growth relative to blank myocyte growth without compound added.)
Avg 3 uM (average myocyte proliferation) [1]: * (<10% growth relative to blank myocyte growth without compound added.)
Avg 10 uM (average myocyte proliferation) [1]: ** (10%-50%)
IC50 [2]: > 10 µM

COc1ccccc1N(C)C1=N/C(=C\c2ccc3c(c2)OCO3)C(=O)N1 [Example 21, (Z)-5-(benzo[d][1,3]dioxol-5-ylmethylene)-2-((2-methoxyphenyl)(methyl)amino)-3,5-dihydro-4H-imidazol-4-one]
Avg 1 uM (average myocyte proliferation) [1]: *** (>50%)
Avg 3 uM (average myocyte proliferation) [1]: *** (>50%)
Avg 10 uM (average myocyte proliferation) [1]: ** (10%-50%)
IC50 [2]: > 10 µM

O=C1NC(N(Cc2ccccc2)c2ccccc2)=N/C1=C\c1ccc2c(c1)OCO2 [Example 22, (Z)-5-(benzo[d][1,3]dioxol-5-ylmethylene)-2-(benzyl(phenyl)amino)-3,5-dihydro-4H-imidazol-4-one]
Avg 1 uM (average myocyte proliferation) [1]: ** (10%-50%)
Avg 3 uM (average myocyte proliferation) [1]: ** (10%-50%)
Avg 10 uM (average myocyte proliferation) [1]: ** (10%-50%)
IC50 [2]: > 10 µM

CN(Cc1ccccc1)C1=N/C(=C\c2ccc3c(c2)OCO3)C(=O)N1 [Example 23, (Z)-5-(benzo[d][1,3]dioxol-5-ylmethylene)-2-(benzyl(methyl)amino)-3,5-dihydro-4H-imidazol-4-one]
Avg 1 uM (average myocyte proliferation) [1]: ** (10%-50%)
Avg 3 uM (average myocyte proliferation) [1]: ** (10%-50%)
Avg 10 uM (average myocyte proliferation) [1]: ** (10%-50%)
IC50 [2]: > 10 µM

CN(C1=N/C(=C\c2ccc3ncsc3c2)C(=O)N1)c1ccc(Cl)cc1 [Example 24, (Z)-5-(benzo[d]thiazol-6-ylmethylene)-2-((4-chlorophenyl)(methyl)amino)-3,5-dihydro-4H-imidazol-4-one]
Avg 1 uM (average myocyte proliferation) [1]: * (<10% growth relative to blank myocyte growth without compound added.)
Avg 3 uM (average myocyte proliferation) [1]: * (<10% growth relative to blank myocyte growth without compound added.)
Avg 10 uM (average myocyte proliferation) [1]: * (<10% growth relative to blank myocyte growth without compound added.)
IC50 [2]: > 10 µM

COc1ccc(NC2=N/C(=C\c3ccc4ncsc4c3)C(=O)N2)cc1 [Example 25, (Z)-5-(benzo[d]thiazol-6-ylmethylene)-2-((4-methoxyphenyl)amino)-3,5-dihydro-4H-imidazol-4-one]
Avg 1 uM (average myocyte proliferation) [1]: ** (10%-50%)
Avg 3 uM (average myocyte proliferation) [1]: * (<10% growth relative to blank myocyte growth without compound added.)
Avg 10 uM (average myocyte proliferation) [1]: * (<10% growth relative to blank myocyte growth without compound added.)
IC50 [2]: 0.1 to 1 µM
